The source of these data is ChEMBL document CHEMBL5634096, “Design, synthesis and bioevaluation of PI3Kα-selective inhibitors as potential colorectal cancer drugs” (Eur J Med Chem, 2023).

Each structure is given as a SMILES string. The source made the active and inactive calls. The rule behind the calls is not given here.

What is called IC50 is the concentration at which inhibition is half-maximal.

The subject of test [1] is 786-0. Briefly: Antiproliferative activity against human 786-0 cells assessed as reduction in cell viability at 10 uM incubated for 24 to 48 hrs by CCK-8 assay. In kind it is functional, cell-based. Particulars: time lower […], time upper 48.0 hrs. For orientation: Tetrazolium assays rely on reduction of a dye to a coloured formazan, in cell work by metabolically active cells.

The subject of test [2] is DU-145. Briefly: Antiproliferative activity against human DU-145 cells assessed as reduction in cell viability at 10 uM incubated for 24 to 48 hrs by CCK-8 assay. In kind it is functional, cell-based. The note with it: time lower […], time upper 48.0 hrs.
Test [3] concerns HCT-116. Briefly: Antiproliferative activity against human HCT-116 cells assessed as inhibition of mTOR phosphorylation incubated for 48 hrs by Western blotting analysis. In kind it is functional, cell-based. The note with it: dose 3-12 µM.
Test [4] has as its target Phosphatidylinositol 4,5-bisphosphate 3-kinase catalytic subunit beta isoform (Homo sapiens, UniProt P42338). The test is described as follows: Inhibition of PI3Kbeta (unknown origin) by ADP-Glo luminescent kinase assay.
Test [5] deals with Cytochrome P450 3A4 (Homo sapiens, UniProt P08684). Briefly: Inhibition of CYP3A4 in human liver microsomes using midazolam as substrate pre-incubated for 30 mins followed by substrate addition and measured after 15 mins in presence of NADPH by LC/MS analysis. In kind it is ADME, Microsome. (Microsomes from liver hold many membrane-bound enzymes, among them those of drug oxidation.)
Chain of Cytochrome P450 3A4 (P08684 whole entry): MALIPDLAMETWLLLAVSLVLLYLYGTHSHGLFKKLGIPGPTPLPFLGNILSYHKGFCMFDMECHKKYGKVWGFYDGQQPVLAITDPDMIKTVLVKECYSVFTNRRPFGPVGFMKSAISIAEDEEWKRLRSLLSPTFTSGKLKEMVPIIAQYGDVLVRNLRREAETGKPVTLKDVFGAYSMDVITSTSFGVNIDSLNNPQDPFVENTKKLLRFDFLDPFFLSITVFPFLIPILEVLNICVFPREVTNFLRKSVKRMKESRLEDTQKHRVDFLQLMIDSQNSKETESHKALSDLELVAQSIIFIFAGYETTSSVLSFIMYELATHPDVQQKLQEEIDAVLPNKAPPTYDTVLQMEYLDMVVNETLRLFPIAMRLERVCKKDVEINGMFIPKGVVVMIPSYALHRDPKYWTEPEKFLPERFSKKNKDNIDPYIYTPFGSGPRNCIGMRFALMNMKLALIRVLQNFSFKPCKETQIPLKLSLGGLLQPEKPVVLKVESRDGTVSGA

Chain of Phosphatidylinositol 4,5-bisphosphate 3-kinase catalytic subunit beta isoform (P42338 whole entry, canonical isoform): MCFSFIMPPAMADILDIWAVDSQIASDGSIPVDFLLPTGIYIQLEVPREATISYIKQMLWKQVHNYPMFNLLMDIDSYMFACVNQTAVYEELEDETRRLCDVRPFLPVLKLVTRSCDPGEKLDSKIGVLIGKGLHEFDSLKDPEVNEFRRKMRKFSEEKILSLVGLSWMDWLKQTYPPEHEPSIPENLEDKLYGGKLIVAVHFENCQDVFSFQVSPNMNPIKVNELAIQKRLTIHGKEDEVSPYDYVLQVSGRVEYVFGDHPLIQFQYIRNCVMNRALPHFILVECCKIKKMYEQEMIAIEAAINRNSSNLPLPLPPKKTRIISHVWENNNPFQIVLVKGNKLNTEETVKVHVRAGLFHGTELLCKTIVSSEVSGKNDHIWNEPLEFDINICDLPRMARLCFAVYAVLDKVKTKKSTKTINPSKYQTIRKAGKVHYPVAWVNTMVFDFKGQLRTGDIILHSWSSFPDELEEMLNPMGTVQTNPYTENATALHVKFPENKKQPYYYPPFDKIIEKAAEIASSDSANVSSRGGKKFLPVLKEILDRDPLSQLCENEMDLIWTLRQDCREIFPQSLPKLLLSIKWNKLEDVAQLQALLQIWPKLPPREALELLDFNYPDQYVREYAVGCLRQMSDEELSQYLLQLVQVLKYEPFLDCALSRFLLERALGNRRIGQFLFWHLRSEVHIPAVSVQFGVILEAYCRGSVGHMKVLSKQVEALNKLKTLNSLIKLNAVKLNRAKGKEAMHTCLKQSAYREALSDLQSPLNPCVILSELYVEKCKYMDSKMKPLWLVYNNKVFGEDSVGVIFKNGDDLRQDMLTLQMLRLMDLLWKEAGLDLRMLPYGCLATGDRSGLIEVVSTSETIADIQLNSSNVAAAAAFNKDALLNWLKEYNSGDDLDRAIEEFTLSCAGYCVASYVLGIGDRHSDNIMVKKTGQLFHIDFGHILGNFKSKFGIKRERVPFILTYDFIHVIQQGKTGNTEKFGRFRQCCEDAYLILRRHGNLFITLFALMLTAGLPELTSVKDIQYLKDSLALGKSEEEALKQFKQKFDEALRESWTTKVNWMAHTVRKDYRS

As for `Nc1nc2cc(-c3ccc4ncc(N5C[C@@H]6OCCO[C@@H]6C5)nc4c3)ccc2o1`, the result in test [1] and in test [2] was Active. In addition, the Activity entry in test [3] is “Dose-Dependent Effect”. For the same compound, the IC50 in test [4] was 450 nM; in test [5], greater than 10000 nM.
